Key:
PI3kα = PI3kα (Homo sapiens, UniProt P42336); test: Fluorescent (HTRF) determination of PI3 kinase enzyme activity, PI3Kα; format: biochemical; details: 1 uM
In short: (§1)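 Compounds tested at 1 μM on α and β isoforms and at 0.3 or 0.1 μM on γ and δ, with percent inhibition from blank and enzyme controls, plus IC50 fits. Room-temperature reaction: 10 min enzyme–compound preincubation in MgCl2/DTT buffer with 1.38 μM PIP2, then 30 min after 400 μM ATP addition; PIP3 read by HTRF (665/620 nm).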

PI3kδ = PI3kδ (Homo sapiens, UniProt O00329); test: Fluorescent (HTRF) determination of PI3 kinase enzyme activity, PI3Kδ; format: biochemical; details: for inhibition at 0.3 µM: 300 nM (Examples 1-59)
In short: as §1

PI3kγ = PI3kγ (Homo sapiens, UniProt P48736); test: Fluorescent (HTRF) determination of PI3 kinase enzyme activity, PI3Kγ; format: biochemical; details: for inhibition at 0.3 µM: 300 nM (Examples 1-59)
In short: as §1

PI3kβ = PI3kβ (Homo sapiens, UniProt P42338); test: Fluorescent (HTRF) determination of PI3 kinase enzyme activity, PI3Kβ; format: biochemical; details: 1 uM
In short: as §1

[1] = 100 nM (Examples 60-137), 0.1 µM

Sequence of PI3kα (P42336 whole entry, canonical isoform): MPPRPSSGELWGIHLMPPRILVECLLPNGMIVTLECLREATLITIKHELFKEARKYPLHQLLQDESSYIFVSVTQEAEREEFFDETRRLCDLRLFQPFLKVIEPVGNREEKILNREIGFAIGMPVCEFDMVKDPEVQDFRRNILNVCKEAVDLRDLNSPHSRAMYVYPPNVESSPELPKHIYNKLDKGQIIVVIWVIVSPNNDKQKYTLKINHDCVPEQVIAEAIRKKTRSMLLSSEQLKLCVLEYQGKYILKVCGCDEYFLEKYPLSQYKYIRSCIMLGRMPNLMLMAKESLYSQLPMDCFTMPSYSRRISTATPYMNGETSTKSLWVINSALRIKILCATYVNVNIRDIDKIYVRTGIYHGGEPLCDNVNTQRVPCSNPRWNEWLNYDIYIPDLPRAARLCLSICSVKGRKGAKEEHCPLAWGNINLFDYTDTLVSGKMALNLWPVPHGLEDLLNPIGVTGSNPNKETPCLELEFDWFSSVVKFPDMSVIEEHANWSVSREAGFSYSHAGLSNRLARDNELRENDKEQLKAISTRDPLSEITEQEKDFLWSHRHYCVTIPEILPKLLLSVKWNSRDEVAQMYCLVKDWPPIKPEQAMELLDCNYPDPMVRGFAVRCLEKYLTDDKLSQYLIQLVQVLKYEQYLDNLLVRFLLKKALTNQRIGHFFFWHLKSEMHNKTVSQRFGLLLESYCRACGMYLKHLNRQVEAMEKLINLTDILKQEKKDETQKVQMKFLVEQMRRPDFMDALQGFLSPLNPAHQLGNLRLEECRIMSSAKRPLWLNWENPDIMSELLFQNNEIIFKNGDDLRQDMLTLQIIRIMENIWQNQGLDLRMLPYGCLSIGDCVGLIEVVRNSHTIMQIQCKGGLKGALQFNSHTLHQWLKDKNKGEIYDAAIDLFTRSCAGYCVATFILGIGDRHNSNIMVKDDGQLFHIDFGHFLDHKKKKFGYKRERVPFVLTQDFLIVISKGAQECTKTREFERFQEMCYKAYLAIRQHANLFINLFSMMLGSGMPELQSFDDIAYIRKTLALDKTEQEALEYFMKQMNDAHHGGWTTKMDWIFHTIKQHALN
Sequence of PI3kα (P27986 whole entry partner, canonical isoform): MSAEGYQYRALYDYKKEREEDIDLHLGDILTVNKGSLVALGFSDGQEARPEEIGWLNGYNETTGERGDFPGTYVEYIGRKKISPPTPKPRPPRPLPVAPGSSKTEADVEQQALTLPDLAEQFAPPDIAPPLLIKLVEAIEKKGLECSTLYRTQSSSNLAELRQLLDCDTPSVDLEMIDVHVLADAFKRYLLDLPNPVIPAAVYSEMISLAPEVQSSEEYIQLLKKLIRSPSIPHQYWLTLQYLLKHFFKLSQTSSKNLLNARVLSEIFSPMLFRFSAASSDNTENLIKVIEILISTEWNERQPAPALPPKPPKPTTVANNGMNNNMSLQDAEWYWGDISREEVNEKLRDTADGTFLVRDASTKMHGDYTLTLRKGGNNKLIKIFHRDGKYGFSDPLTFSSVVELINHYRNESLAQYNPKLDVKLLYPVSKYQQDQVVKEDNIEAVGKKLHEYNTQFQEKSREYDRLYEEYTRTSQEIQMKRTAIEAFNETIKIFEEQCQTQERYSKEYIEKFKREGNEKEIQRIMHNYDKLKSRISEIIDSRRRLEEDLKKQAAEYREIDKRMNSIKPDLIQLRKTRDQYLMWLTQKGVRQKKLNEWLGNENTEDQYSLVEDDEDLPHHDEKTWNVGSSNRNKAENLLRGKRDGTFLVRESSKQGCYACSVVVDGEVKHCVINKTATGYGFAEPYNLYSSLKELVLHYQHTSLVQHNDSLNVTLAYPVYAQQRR
Sequence of PI3kβ (P42338 whole entry): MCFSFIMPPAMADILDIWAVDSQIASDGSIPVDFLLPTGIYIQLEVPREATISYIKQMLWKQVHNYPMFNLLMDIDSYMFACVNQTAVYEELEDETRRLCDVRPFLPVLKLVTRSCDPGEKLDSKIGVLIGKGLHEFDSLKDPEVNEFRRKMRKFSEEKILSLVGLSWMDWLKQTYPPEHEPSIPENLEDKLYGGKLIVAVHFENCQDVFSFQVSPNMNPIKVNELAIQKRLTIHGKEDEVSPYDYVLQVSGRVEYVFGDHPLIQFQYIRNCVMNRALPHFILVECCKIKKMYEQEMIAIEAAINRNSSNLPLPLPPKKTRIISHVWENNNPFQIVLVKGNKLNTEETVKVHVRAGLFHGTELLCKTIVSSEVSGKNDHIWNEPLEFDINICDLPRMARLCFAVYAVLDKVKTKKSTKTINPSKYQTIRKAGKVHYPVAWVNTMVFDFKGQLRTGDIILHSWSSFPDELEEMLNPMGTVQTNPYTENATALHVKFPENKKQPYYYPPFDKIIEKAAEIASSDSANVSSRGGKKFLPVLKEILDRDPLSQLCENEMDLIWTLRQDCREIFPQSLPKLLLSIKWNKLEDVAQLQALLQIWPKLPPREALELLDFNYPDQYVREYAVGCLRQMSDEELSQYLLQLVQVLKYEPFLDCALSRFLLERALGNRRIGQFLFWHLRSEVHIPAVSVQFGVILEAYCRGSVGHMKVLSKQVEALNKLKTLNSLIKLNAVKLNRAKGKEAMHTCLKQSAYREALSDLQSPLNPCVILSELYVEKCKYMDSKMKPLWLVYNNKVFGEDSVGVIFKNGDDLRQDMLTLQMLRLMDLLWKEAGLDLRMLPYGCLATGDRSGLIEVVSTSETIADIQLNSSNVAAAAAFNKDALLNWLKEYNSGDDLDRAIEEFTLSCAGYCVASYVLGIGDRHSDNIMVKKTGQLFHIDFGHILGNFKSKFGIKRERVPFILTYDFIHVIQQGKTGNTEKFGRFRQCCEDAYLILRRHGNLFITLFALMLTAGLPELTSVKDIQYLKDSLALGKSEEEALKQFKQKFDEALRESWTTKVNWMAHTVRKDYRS
Sequence of PI3kβ (P27986 whole entry partner): as the sequence (P27986 whole entry partner, canonical isoform) above
Sequence of PI3kγ (P48736 whole entry): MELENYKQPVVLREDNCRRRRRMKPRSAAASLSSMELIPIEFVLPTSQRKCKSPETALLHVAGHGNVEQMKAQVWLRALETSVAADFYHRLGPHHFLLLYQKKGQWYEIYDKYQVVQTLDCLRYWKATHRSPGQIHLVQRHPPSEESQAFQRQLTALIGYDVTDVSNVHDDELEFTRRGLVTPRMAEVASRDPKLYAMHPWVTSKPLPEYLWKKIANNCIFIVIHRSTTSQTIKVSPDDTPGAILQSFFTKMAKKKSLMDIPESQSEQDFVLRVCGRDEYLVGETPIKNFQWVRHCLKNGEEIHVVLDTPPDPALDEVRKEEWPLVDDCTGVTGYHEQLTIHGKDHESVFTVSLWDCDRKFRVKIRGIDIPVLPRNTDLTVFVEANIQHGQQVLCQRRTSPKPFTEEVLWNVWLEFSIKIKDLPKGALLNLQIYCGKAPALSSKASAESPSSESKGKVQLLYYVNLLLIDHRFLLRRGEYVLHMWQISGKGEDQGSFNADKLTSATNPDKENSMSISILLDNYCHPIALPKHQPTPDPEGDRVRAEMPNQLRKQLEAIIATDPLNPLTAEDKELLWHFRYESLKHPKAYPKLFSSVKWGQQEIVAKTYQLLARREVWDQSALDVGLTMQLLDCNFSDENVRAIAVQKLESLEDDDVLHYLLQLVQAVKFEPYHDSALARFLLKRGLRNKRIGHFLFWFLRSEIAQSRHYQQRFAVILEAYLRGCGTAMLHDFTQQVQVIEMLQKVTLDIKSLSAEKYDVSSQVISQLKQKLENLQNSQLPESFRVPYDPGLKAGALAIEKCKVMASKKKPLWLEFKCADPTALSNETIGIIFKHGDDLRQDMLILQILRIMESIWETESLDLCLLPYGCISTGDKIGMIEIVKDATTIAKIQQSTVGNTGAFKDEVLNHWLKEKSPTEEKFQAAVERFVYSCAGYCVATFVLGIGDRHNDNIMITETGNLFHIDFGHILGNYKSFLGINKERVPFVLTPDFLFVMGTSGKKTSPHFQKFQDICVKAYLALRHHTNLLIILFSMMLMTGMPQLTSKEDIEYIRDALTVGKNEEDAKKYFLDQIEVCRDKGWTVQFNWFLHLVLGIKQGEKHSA
Sequence of PI3kδ (O00329 whole entry): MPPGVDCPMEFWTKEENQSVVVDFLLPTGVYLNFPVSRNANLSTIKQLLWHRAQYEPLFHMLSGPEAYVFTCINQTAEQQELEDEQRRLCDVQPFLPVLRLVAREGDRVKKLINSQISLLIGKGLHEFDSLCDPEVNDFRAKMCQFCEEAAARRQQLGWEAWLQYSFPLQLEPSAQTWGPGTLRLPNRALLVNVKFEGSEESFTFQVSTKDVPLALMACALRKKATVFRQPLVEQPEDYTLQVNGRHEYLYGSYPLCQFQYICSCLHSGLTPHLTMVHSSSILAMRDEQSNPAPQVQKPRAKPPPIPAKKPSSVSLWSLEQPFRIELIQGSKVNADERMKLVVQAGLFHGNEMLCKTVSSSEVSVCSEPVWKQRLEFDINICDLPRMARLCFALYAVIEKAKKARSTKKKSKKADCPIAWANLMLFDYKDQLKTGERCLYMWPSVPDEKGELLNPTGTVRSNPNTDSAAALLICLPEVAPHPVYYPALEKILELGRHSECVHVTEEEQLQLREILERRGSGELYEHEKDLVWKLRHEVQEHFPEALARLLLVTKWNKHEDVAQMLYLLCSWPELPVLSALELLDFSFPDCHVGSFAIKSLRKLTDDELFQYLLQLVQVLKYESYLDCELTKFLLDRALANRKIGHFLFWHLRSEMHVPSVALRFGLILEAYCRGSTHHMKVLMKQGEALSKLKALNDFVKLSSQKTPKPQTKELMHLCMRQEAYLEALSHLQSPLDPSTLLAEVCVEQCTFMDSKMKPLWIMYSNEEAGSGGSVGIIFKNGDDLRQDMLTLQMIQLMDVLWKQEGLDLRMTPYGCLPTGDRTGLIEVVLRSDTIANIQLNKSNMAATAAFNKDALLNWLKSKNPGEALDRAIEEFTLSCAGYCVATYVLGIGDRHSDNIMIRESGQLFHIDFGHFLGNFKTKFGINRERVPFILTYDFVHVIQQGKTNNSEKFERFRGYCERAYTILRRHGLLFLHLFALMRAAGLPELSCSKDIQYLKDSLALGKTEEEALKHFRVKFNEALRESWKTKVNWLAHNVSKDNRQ
Sequence of PI3kδ (P27986 whole entry partner): as the sequence (P27986 whole entry partner, canonical isoform) above

SMILES	inhibition at 1 µM (PI3kα) [%]	melting point [°C]	inhibition at 0.3 µM (PI3kδ) [%]	inhibition at 0.3 µM (PI3kγ) [%]	inhibition at 1 µM (PI3kβ) [%]	inhibition at 0.1 µM (PI3kδ; 100 nM (Examples 60-137)) [%]	inhibition at 0.1 µM (PI3kγ; 100 nM (Examples 60-137)) [%]	IC50 (PI3kδ) [nM]	% inhibition (PI3kδ) 100 nM (PI3kδ; [1])	% inhibition (PI3kγ) 100 nM (PI3kγ; [1])
CNc1nnc(-c2ccc(-c3nn(C(C)c4oc5cccc(F)c5c(=O)c4-c4cccc(F)c4)c4ncnc(N)c34)cc2)s1 (stereo not drawn) [Example 54, 2-(1-(4-amino-3-(4-(5-(methylamino)-1,3,4-thiadiazol-2-yl)phenyl)-1H-pyrazolo[3,4-d]pyrimidin-1-yl)ethyl)-5-fluoro-3-(3-fluorophenyl)-4H-chromen-4-one]	25 to 50	199 to 201	50 to 75	50 to 75	25 to 50	–	–	–	–	–
CC(C)NS(=O)(=O)c1ccc(-c2nn(C(C)c3oc4cccc(F)c4c(=O)c3-c3cccc(F)c3)c3ncnc(N)c23)cc1 (stereo not drawn) [Example 56, 4-(4-amino-1-(1-(5-fluoro-3-(3-fluorophenyl)-4-oxo-4H-chromen-2-yl)ethyl)-1H-pyrazolo[3,4-d]pyrimidin-3-yl)-N-isopropylbenzenesulfonamide]	0 to 25	211 to 214	0 to 25	50 to 75	50 to 75	–	–	–	–	–
CC(C)Oc1ncc(-c2nn(C(C)c3oc4cccc(F)c4c(=O)c3-c3cccc(F)c3)c3ncnc(N)c23)cn1 (stereo not drawn) [Example 58, 2-(1-(4-amino-3-(2-isopropoxypyrimidin-5-yl)-1H-pyrazolo[3,4-d]pyrimidin-1-yl)ethyl)-5-fluoro-3-(3-fluorophenyl)-4H-chromen-4-one]	0 to 25	230 to 232	50 to 75	25 to 50	50 to 75	–	–	–	–	–
CC(c1oc2cccc(F)c2c(=O)c1-c1cccc(F)c1)n1nc(-c2ccc(S(N)(=O)=O)cc2)c2c(N)ncnc21 (stereo not drawn) [Example 60, 4-(4-amino-1-(1-(5-fluoro-3-(3-fluorophenyl)-4-oxo-4H-chromen-2-yl)ethyl)-1H-pyrazolo[3,4-d]pyrimidin-3-yl)benzenesulfonamide]	0 to 25	232 to 235	–	–	25 to 50	25 to 50	25 to 50	–	–	–
COC(=O)c1cc(-c2nn(C(C)c3oc4cccc(F)c4c(=O)c3-c3cccc(F)c3)c3ncnc(N)c23)cs1 (stereo not drawn) [Example 61, methyl 4-(4-amino-1-(1-(5-fluoro-3-(3-fluorophenyl)-4-oxo-4H-chromen-2-yl)ethyl)-1H-pyrazolo[3,4-d]pyrimidin-3-yl)thiophene-2-carboxylate]	25 to 50	227 to 230	–	–	25 to 50	25 to 50	50 to 75	–	–	–
Cc1ccc(-c2nn(C(C)c3oc4cccc(F)c4c(=O)c3-c3cccc(F)c3)c3ncnc(N)c23)s1 (stereo not drawn) [Example 62, 2-(1-(4-amino-3-(5-methylthiophen-2-yl)-1H-pyrazolo[3,4-d]pyrimidin-1-yl)ethyl)-5-fluoro-3-(3-fluorophenyl)-4H-chromen-4-one]	0 to 25	223 to 226	–	–	50 to 75	50 to 75	25 to 50	–	–	–
CC(c1oc2cccc(F)c2c(=O)c1-c1cccc(F)c1)n1nc(-c2cnc3[nH]ccc3c2)c2c(N)ncnc21 (stereo not drawn) [Example 63, 2-(1-(4-amino-3-(1H-pyrrolo[2,3-b]pyridin-5-yl)-1H-pyrazolo[3,4-d]pyrimidin-1-yl)ethyl)-5-fluoro-3-(3-fluorophenyl)-4H-chromen-4-one]	25 to 50	303 to 306	–	–	0 to 25	25 to 50	25 to 50	–	–	–
CC(c1oc2cccc(F)c2c(=O)c1-c1cccc(F)c1)n1nc(C#CCO)c2c(N)ncnc21 (stereo not drawn) [Example 66, 2-(1-(4-amino-3-(3-hydroxyprop-1-ynyl)-1H-pyrazolo[3,4-d]pyrimidin-1-yl)ethyl)-5-fluoro-3-(3-fluorophenyl)-4H-chromen-4-one]	25 to 50	220 to 222	–	–	25 to 50	25 to 50	25 to 50	–	–	–
CC(c1oc2cccc(F)c2c(=O)c1-c1cccc(F)c1)n1nc(-c2ccc(CNC(=O)OC(C)(C)C)o2)c2c(N)ncnc21 (stereo not drawn) [Example 74, tert-butyl (5-(4-amino-1-(1-(5-fluoro-3-(3-fluorophenyl)-4-oxo-4H-chromen-2-yl)ethyl)-1H-pyrazolo[3,4-d]pyrimidin-3-yl)furan-2-yl)methylcarbamate]	0 to 25	163 to 166	–	–	25 to 50	50 to 75	25 to 50	–	–	–
CC(c1oc2cccc(F)c2c(=O)c1-c1cccc(F)c1)n1nc(-c2ccc(CN3CCOCC3)s2)c2c(N)ncnc21 (stereo not drawn) [Example 76, 2-(1-(4-amino-3-(5-(morpholinomethyl)thiophen-2-yl)-1H-pyrazolo[3,4-d]pyrimidin-1-yl)ethyl)-5-fluoro-3-(3-fluorophenyl)-4H-chromen-4-one]	0 to 25	193 to 196	–	–	25 to 50	25 to 50	25 to 50	–	–	–
CC(c1oc2cccc(F)c2c(=O)c1-c1cccc(F)c1)n1nc(-c2ccc(-c3nnc(N)s3)cc2)c2c(N)ncnc21 (stereo not drawn) [Example 77, 2-(1-(4-amino-3-(4-(5-amino-1,3,4-thiadiazol-2-yl)phenyl)-1H-pyrazolo[3,4-d]pyrimidin-1-yl)ethyl)-5-fluoro-3-(3-fluorophenyl)-4H-chromen-4-one]	25 to 50	202 to 205	–	–	50 to 75	50 to 75	25 to 50	50 to 100	–	–
Cc1nn(C)c2cc(-c3nn(C(C)c4oc5cccc(F)c5c(=O)c4-c4cccc(F)c4)c4ncnc(N)c34)ccc12 (stereo not drawn) [Example 79, 2-(1-(4-amino-3-(1,3-dimethyl-1H-indazol-6-yl)-1H-pyrazolo[3,4-d]pyrimidin-1-yl)ethyl)-5-fluoro-3-(3-fluorophenyl)-4H-chromen-4-one]	25 to 50	220 to 224	–	–	25 to 50	0 to 25	25 to 50	–	–	–
Cc1c2ccc(-c3nn(C(C)c4oc5cccc(F)c5c(=O)c4-c4cccc(F)c4)c4ncnc(N)c34)cc2nn1C (stereo not drawn) [Example 80, 2-(1-(4-amino-3-(2,3-dimethyl-2H-indazol-6-yl)-1H-pyrazolo[3,4-d]pyrimidin-1-yl)ethyl)-5-fluoro-3-(3-fluorophenyl)-4H-chromen-4-one]	50 to 75	232 to 235	–	–	25 to 50	50 to 75	25 to 50	–	–	–
CC(C)C(=O)Nc1ccc(-c2nn(C(C)c3oc4cccc(F)c4c(=O)c3-c3cccc(F)c3)c3ncnc(N)c23)cc1F (stereo not drawn) [Example 81, N-(4-(4-amino-1-(1-(5-fluoro-3-(3-fluorophenyl)-4-oxo-4H-chromen-2-yl)ethyl)-1H-pyrazolo[3,4-d]pyrimidin-3-yl)-2-fluorophenyl)isobutyramide]	25 to 50	249 to 252	–	–	25 to 50	50 to 75	25 to 50	–	–	–
CC(=O)Nc1ccc(-c2nn(C(C)c3oc4cccc(F)c4c(=O)c3-c3cccc(F)c3)c3ncnc(N)c23)cc1F (stereo not drawn) [Example 82, N-(4-(4-amino-1-(1-(5-fluoro-3-(3-fluorophenyl)-4-oxo-4H-chromen-2-yl)ethyl)-1H-pyrazolo[3,4-d]pyrimidin-3-yl)-2-fluorophenyl)acetamide]	25 to 50	220 to 223	–	–	25 to 50	25 to 50	25 to 50	–	–	–
CC(C)Oc1ccc(-c2nn(C(C)c3oc4cccc(F)c4c(=O)c3-c3cccc(F)c3)c3ncnc(N4CCOCC4)c23)cc1F (stereo not drawn) [Example 85, 5-fluoro-2-(1-(3-(3-fluoro-4-isopropoxyphenyl)-4-morpholino-1H-pyrazolo[3,4-d]pyrimidin-1-yl)ethyl)-3-(3-fluorophenyl)-4H-chromen-4-one]	0 to 25	116 to 119	–	–	25 to 50	–	–	–	C (C=>25 to 50%)	C (C=>25 to 50%)

— patent US11020399B2, “Intermediates useful in the synthesis of compounds as modulators of protein kinases” (Rhizen Pharmaceuticals SA, priority 2011, dated 2021)
